Laboratory results from US20250026746A1, “ENHANCERS OF PARTICULATE GUANYLYL CYCLASE RECEPTOR A” (Mayo Foundation for Medical Education and Research, priority 2021, published 2025).

Legend:
human GC-A = target: T1, human GC-A (Homo sapiens, UniProt P16066); assay: EC50 and Emax cGMP determination, HTRF, human GC-A overexpressing HEK293 cells; format: cell-based; settings: HEK293 GC-A cells
T1 construct: host or cells: HEK293
T1 sequence (P16066 33-1061): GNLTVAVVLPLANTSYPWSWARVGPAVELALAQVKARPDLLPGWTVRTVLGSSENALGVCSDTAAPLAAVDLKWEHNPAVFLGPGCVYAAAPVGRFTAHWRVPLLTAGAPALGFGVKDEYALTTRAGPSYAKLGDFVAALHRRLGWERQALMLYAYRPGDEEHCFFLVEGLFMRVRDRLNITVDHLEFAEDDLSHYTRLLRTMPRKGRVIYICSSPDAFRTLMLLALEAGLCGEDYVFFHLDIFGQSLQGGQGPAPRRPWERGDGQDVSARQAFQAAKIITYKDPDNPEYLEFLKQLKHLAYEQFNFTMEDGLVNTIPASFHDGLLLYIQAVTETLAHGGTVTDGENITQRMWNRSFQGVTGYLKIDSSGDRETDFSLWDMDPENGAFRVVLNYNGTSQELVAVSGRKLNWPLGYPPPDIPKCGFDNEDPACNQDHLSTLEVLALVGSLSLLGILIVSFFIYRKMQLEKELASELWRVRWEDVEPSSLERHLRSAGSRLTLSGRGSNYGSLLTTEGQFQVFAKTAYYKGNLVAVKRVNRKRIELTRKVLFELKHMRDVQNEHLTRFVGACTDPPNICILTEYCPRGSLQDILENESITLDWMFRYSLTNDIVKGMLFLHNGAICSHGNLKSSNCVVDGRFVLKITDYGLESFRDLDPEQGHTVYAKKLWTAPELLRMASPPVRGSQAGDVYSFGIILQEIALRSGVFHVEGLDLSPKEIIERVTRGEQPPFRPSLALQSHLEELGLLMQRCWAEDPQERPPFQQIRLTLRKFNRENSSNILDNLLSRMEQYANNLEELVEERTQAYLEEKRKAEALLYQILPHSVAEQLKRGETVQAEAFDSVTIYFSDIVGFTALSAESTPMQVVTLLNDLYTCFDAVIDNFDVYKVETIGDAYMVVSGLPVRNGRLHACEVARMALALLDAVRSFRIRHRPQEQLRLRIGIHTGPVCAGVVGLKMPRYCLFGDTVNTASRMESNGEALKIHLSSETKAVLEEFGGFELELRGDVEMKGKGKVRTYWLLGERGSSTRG
T1 sequence (P01160 124-151 partner limits assumed): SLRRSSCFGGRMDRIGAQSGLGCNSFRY
Protocol: Test compounds were evaluated for potentiation of cGMP in human GC-A overexpressing HEK293 cells (Cardiorenal Research Laboratory, Mayo Clinic). Test compounds at 10 mM DMSO stock concentration were dispensed into 384 well small volume white plates using Tecan D300e digital dispenser starting at 5 μM or 40 μM concentration and diluted 2-fold for 10-point concentration response. Wells were backfilled with DMSO such that the final concentration of DMSO in all wells was maintained at 0.3% DMSO. Atrial natriuretic peptide (ANP, Phoenix Pharmaceuticals) ANP was prepared as working stock aliquots at 5 μM in phosphate-buffered solution (PBS) with 0.1% bovine serum albumin (BSA) and diluted to […] in buffer plus Tween20 at 0.3% and added to plates to a final concentration equivalent to EC20 ANP in the cGMP assay. GC-A cells in suspension ([…]) in OptiMem media (ThermoFisher 11058-021) supplemented with 2% fetal bovine serum were plated at 1×10^6 cells/mL and assay plates were spun at 1000 rpm for 30 sec and incubated at room temperature for 30 min. GC-A-mediated activation of cGMP production was measured using cGMP CisBio detection homogenous time-resolved florescence (HTRF) competition assay using labeled-cGMP in human GC-A-overexpressing HEK293 cells. 5 μL of d-2 acceptor was dispensed into each well followed by addition of 5 μL of Anti-cGMP Eu-Cryptate antibody donor and plates were spun at 1000 rpm for 30 sec and incubated in the dark at room temperature for 1 hr. HTRF florescence was read on the ClarioStar microplate reader (BMG). A 100% response was determined from wells in the absence of compound and presence of saturating concentration of ANP (10 nM), and 0) % response was determined from wells containing an EC20 concentration of ANP determined for each new lot of ANP. Concentration-response curves for test compounds were analyzed by […] analysis using GraphPad software to determine EC50 and Emax values.

[1] = tested on: Primary Human cardiomyocytes; assay: cGMP levels (ELISA) in human cardiomyocytes; format: cell-based; settings: acetate salt, ANP (10^-10 M); for cGMP generation in HCMs in the presence of ANP: 1 or 10 μM, vs vehicle
Protocol: Primary Human cardiomyocytes (HCMs: Catalog No. 6200, Lot No. 6288, PromoCell) were maintained and subcultured according to the manufacturer's protocols. Passage 5 was used in the study. Treatment buffer, Compound 3, Compound 1 and Compound 2 acetate salt, ANP, and vehicle were prepared as described above. Briefly, 5×10^5 of cells/well were grown in 6-well plates until 80 to 90% confluency and were then pretreated with vehicle or Compound 3, Compound 1 or Compound 2 at doses of 1 or 10 μM for 5 min at 37° C., then cells were treated with ANP (10^-10 M) for an additional 10 min at 37° C. Afterward, all cells were washed with PBS once and lysed with 0.1 M HCl at room temperature, and intracellular cGMP levels were measured in the lysate using a commercial cGMP ELISA kit (Enzo Life Sciences) with the acetylation method as instructed by the manufacturer.

SMILES	potency in potentiating ANP-mediated cGMP generation (comparison between forms/enantiomers) (human GC-A)	cGMP generation in HCMs in the presence of ANP [1]	cGMP generation in HCMs, Compound 1 compared with Compound 2 ([1]; both doses)
CN(C)CCN1CCC[C@H](C(=O)Nc2nc3c(F)cc(F)cc3s2)C1 [Compound 1, (S)-N-(4,6-difluorobenzo[d]thiazol-2-yl)-1-(2-(dimethylamino)ethyl) piperidine-3-carboxamide]	more potent	increased cGMP levels in a dose dependent manner	more potent
CN(C)CCN1CCC[C@@H](C(=O)Nc2nc3c(F)cc(F)cc3s2)C1 [Compound 2, (R)-N-(4,6-difluorobenzo[d]thiazol-2-yl)-1-(2-(dimethylamino)ethyl) piperidine-3-carboxamide]		increased cGMP levels in a dose dependent manner	
